Earlier results as cited in US20100068280A1, “SUSTAINED RELEASE PHARMACEUTICAL DOSAGE FORM CONTAINING PHENYLEPHRINE” (priority 2006, published 2010).

Settings: in vivo

elimination half-life: 9 to 12 h
Structure (SMILES): CN1CCC(=C2c3ccccc3CCc3cccnc32)CC1 [Azatadine]
